Tested on: L. amazonensis
Assay: In vivo therapeutic response of hamsters experimentally infected with L. amazonensis (hamster model for cutaneous leishmaniasis)
Conditions: for cure rate: hamster model for cutaneous leishmaniasis, L. amazonensis, outcome at end of study (3 months after the end of treatment); for lesion size compared between treatment groups: hamsters infected with L. amazonensis, from the second month after the end of treatment to the end of the study; for activity against Leishmania parasites: leishmanicidal activity as shown in FIG. 4 and FIG. 5
Protocol: The formulation has been tested in vitro and in vivo for their leishmaninicidal activity.
A. TC1 (1.13 mg), B TC1 (4.01%), C: TC2 (1.35 mg), D: TC2 (3.0%), E: TC3 (1.72 mg), F: TC4 (1.25 mg), G: TC4 (4.03%), H: TC18 (3.0%), I: Mixture 1A, 2A, 3A (4.14%), J: Mixture 1A, 2A, 3A (7.77%), K: meglumina antimoniate (1209 mg), L: Vehicle (100 μl) and M: Vehicle (40 mg).
A. TC1 (1.13 mg), B TC1 (4.01%), C: TC2 (1.35 mg), D: TC2 (3.0%), E: TC3 (1.72 mg), F: TC4 (1.25 mg), G: TC4 (4.03%), H: TC18 (3.0%), I: Mixture 1A, 2A, 3A (4.14%), J: Mixture 1A, 2A, 3A (7.77%), K: meglumina antimoniate (1209 mg), L: Vehicle (100 μl) and M: Vehicle (40 mg). BoT: Beginning of Treatment; EoT: End of treatment. 1mAEoT: 1 month after the end of treatment, 2mAEoT: 2 months after the end of treatment, 3mAEoT: 3 months after the end of treatment. […] The efficacy may be increased using other dose or therapeutic schemes.

Compound	cure rate	lesion size compared between treatment groups	activity against Leishmania parasites
O=C(N/N=C1\CCSc2ccccc21)c1ccccc1 [TC1, Benzoic acid, 2-(2,3-dihydro-4H-1-benzothiopyran-4-ylidene)hydrazide]	77%	lowest lesion size	exhibited activity
O=C(N/N=C1\CCSc2ccccc21)c1ccncc1 [TC2, 4-Pyridinecarboxylic acid, 2-(2,3-dihydro-4H-1-benzothiopyran-4-ylidene)hydrazid]		lowest lesion size	exhibited activity
O=C1CCS(=O)(=O)c2ccccc21 [TC18, Thiochroman-4-one, 1,1-dioxide]	63%		exhibited activity
